Measurements taken from patent US6911432B2, “Drugs, foods or drinks with the use of algae-derived physiologically active substances” (priority 1997, dated 2005).

System: spleen lymphocytes
Assay: lymphocyte blastgenesis induced by Concanavalin A, 3H-thymidine uptake
Type: cell-based, ddY mouse
Description: A spleen was taken out from a ddY mouse (Nippon SLC; male, 7 weeks old), finely minced and suspended in RPMI-1640 medium (Gibco) containing 10% fetal bovine serum (HyClone) to obtain a single cell suspension. The cell suspension was seeded into a plastic Petri dish, incubated at 37° C. for 2 hours in a carbon dioxide incubator. Adhesive cells adhered to the Petri dish were removed and non-adhesive cells were used as spleen lymphocytes. 200 μl of 2×10^6 cells/ml spleen lymphocytes suspension was seeded into each well of 96 well microtiter plate. Agarobiose at varying concentration was added to the wells other than the control well. Furthermore, to all the wells was added 5 μg of Con A (Nacalai Tesque) and the plate was incubated at 37° C. for one day in a carbon dioxide incubator. After incubation, 1 μCi of ^3H-thymidine was added to each well and incubation was continued for additional one day. Then, its uptake into cells was measured using a liquid scintillation counter.
FIG. 34 illustrates the relation between the agarobiose concentration and the ^3H-thymidine uptake in lymphocyte blastgenesis induced by Con A. The horizontal axis represents the agarobiose concentration and the vertical axis represents the ^3H-thymidine uptake (cpm). The open bar and the shaded bar represent the ^3H-thymidine uptake without stimulation and with stimulation by Con A, respectively. […]

Compound: OC[C@H]1O[C@@H](O[C@H]2[C@H]3OC[C@@H]2OC(O)[C@H]3O)[C@H](O)[C@@H](O)[C@H]1O (mixture of isomers) [Agarobiose, agarobiose]
- inhibitory activity against lymphocyte blastgenesis induced by Con A (in words): dose-dependent inhibitory activity
- inhibition of mouse lymphocyte proliferation stimulated by mitogen (Con A, 100 μg/ml): almost completely inhibits
